Assay results from ChEMBL document CHEMBL3886561, “Pyridine-and pyrazine derivatives” (2016).

How the values were obtained:
[1] = target: T1, Inhibitor of nuclear factor kappa-B kinase subunit epsilon (Homo sapiens, UniProt Q14164); assay: IKKepsilon Flashplate Assay: The kinase assay is performed either as 384-well Flashplate assay (for e.g. Topcount measurement). 1 nM IKKepsilon, 800 nM biotinylated IkappaBalpha(19-42) peptide (Biotin-C6-C6-[…]) SEQ ID NO: 1 and 10 uM ATP (spiked with 0.3 uCi 33P-ATP/well) are incubated in a total volume of 50 ul (10 mM MOPS, 10 mM Mg-acetat, 0.1 mM EGTA, 1 mM Dithiothreitol,0.02% Brij35, 0.1% BSA, 0.1% BioStab, pH 7.5) with or without test compound for 2 hours at 30° C. The reaction is stopped with 25 ul 200 mM EDTA. After 30 Min at room temperature the liquid is removed and each well washed thrice with 100 ul 0.9% sodium chloride solution. Non-specific reaction is determined in presence of 3 uM MSC2119074 (BX-795). Radioactivity is measured with Topcount (PerkinElmer).
T1 sequence (Q14164 whole entry): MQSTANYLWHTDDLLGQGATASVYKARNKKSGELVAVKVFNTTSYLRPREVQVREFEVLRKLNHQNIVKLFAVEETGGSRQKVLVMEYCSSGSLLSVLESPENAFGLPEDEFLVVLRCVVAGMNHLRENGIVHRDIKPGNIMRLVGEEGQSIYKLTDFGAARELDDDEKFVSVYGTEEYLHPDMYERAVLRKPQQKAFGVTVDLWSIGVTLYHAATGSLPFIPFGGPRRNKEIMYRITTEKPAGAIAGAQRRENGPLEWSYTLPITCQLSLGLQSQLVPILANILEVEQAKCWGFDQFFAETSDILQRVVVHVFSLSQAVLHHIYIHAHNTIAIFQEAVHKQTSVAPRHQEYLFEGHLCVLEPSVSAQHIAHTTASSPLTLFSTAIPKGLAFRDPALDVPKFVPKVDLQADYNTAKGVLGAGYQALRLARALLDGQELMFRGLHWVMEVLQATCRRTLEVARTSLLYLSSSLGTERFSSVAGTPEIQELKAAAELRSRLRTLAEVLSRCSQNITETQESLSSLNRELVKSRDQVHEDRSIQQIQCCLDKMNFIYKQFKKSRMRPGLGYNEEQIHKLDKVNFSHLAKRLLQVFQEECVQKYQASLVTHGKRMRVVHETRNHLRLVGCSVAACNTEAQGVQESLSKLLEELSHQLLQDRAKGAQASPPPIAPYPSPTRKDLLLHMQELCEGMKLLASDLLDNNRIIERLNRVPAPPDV

[2] = target: T2, Serine/threonine-protein kinase TBK1 (Homo sapiens, UniProt Q9UHD2); assay: TBK1 : The kinase assay is performed as 384-well Flashplate assay (for e.g. Topcount measurement. 0.6 nM TANK binding kinase (TBK1), 800 nM biotinylated MELK-derived peptide (Biotin-Ah-Ah-[…]) SEQ ID NO: 2 and 10 uM ATP (spiked with 0.25 uCi 33P-ATP/well) are incubated in a total volume of 50 ul (10 mM MOPS, 10 mM Mg-acetat, 0.1 mM EGTA, 1 mM DTT, 0.02% Brij35, 0.1% BSA, pH 7.5) with or without test compound for 120 Min at 30° C. The reaction is stopped with 25 ul 200 mM EDTA. After 30 Min at room temperature the liquid is removed and each well washed thrice with 100 ul 0.9% sodium chloride solution.
T2 sequence (Q9UHD2 whole entry): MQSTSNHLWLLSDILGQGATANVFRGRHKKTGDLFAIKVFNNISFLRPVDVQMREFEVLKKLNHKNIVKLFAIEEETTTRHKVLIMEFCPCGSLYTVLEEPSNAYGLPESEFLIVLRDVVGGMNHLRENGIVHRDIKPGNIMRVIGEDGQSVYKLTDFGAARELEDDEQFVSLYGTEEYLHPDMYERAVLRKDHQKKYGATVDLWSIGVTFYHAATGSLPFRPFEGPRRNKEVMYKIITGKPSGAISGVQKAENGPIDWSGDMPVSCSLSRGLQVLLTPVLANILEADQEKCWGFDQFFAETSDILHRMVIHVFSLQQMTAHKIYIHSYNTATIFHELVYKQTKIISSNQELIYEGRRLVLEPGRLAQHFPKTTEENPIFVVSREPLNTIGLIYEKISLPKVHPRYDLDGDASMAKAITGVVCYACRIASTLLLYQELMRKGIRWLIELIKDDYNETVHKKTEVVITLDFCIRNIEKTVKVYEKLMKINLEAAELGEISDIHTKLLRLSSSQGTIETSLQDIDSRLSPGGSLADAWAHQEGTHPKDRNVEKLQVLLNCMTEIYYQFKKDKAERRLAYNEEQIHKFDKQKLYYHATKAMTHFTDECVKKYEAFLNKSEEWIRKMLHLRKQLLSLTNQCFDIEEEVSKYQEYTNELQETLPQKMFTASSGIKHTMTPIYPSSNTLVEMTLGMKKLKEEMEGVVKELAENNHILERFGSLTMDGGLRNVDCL

IC50 [1]: 3200 nM
IC50 [2]: 1100 nM
Structure (SMILES): Nc1ncc(-c2cccc(C(=O)O)c2)cc1C(=O)Nc1ccncc1
